For data set [1], the target named is T1, recombinant human 5-HT6 receptor (Homo sapiens, UniProt P50406).
T1 construct: expressed in transfected cells; membranes used
Nature of the data set: Radioligand binding studies: competition for [3H]LSD binding in HEK293 cell membranes. The note with it: [3H]LSD (5 nM) displacement, membranes of HEK293 cells stably expressing the receptor, 60 min at 37° C., pH 7.4. Here is the method: Radioligand Binding Studies
This example illustrates in vitro radioligand binding studies of compound of formula I.
The binding activity of compounds of this invention in vitro was determined as follows. Duplicate determinations of ligand affinity are made by competing for binding of [^3H]LSD in cell membranes derived from HEK293 cells stably expressing recombinant human 5-HT6 receptor. This cell line was prepared by the method described by Monsma et al., Molecular Pharmacology, Vol. 43 pp. 320-327 (1993).
All determinations were made in assay buffer containing 50 mM Tris-HCl, 10 mM MgSO4, 0.5 mM EDTA, 1 mM ascorbic acid, pH 7.4 at 37° C., in a 250 microliter reaction volume. Assay tubes containing [^3H] LSD (5 nM), competing ligand, and membrane were incubated in a shaking water bath for 60 min. at 37° C., filtered onto Packard GF-B plates (pre-soaked with 0.3% PEI) using a Packard 96 well cell harvester and washed 3 times in ice cold 50 mM Tris-HCl. Bound [^3H] LSD was determined as radioactive counts per minute using Packard TopCount.
Displacement of [3H]LSD from the binding sites was quantified by fitting concentration-binding data to a 4-parameter logistic equation:
[formula] where Hill is the Hill slope, [ligand] is the concentration of competing radioligand and IC50 is the concentration of radioligand producing half-maximal specific binding of radioligand. […]

Where a name gives a salt, the structure may show the parent alone.

T1 sequence (P50406 whole entry): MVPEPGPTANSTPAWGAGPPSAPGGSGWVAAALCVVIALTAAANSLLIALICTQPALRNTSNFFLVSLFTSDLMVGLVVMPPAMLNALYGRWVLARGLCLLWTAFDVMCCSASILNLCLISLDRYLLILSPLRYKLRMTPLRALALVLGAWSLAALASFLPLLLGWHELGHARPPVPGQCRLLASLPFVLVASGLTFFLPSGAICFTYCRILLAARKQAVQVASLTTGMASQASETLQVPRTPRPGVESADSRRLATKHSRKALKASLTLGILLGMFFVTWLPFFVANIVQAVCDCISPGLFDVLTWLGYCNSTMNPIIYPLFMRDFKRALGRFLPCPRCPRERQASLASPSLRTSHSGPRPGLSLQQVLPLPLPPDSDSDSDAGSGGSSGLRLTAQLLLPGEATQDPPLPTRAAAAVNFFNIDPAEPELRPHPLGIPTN

One may read the melting point as the temperature, or range, at which the solid turns liquid. `Cc1cnc2c(N3CCNCC3)cccc2c1Oc1ccccc1` (as salt: TFA) showed a melting point of 143 to 144 °C.

For the compound `COc1cccc(Oc2c(C)cnc3c(N4CCNCC4)cccc23)c1` (as salt: hydrochloride) [Compound 2, 4-(3-Methoxy-phenoxy)-3-methyl-8-piperazin-1-yl-quinoline], the melting point was 254 to 255 °C (dec.).

As a reminder, the Ki is a measure of affinity in units of concentration, obtained from inhibition or displacement. As to `COc1cc(N2CCNCC2)c2ncc(C)c(Oc3ccccc3)c2c1` [Compound 10, 6-Methoxy-3-methyl-4-phenoxy-8-piperazin-1-yl-quinoline], the Ki in data set [1] is approximately 1 nM.

The values above are taken from patent US7307089B2, “Aryloxy quinolines and uses thereof” (Roche Palo Alto LLC, priority 2005, dated 2007).
